Results: article PMC10065799, “High-throughput profiling of sequence recognition by tyrosine kinases and SH2 domains using bacterial peptide display” (eLife, 2023)

Columns and labels:
Test in all cases: pTyr-Var library bacterial peptide display kinase screen (enrichment scores)
c-Src kinase domain = c-Src kinase domain (Homo sapiens, UniProt P12931); type: biochemical; conditions: sheet "Src";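 further: log2 fold change in enrichment of variant over reference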
Fer kinase domain = type: biochemical, mouse; conditions: sheet "Fer"
EPHB1 kinase domain = type: biochemical, human; conditions: for Screen: sheet EPHB1, effect of the variant peptide relative to its reference peptide in the pTyr-Var library screen (enrichment scores); for Screen (variant relative to reference peptide, measured in the pTyr-Var library screen): sheet "EPHB1", variant seq vs reference seq, bacterial peptide display enrichment
c-Abl kinase domain = biological target: T1, c-Abl kinase domain (Mus musculus, UniProt P00520); type: biochemical;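 further: log2 fold change in enrichment of variant over reference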
T1 sequence (P00520 242-493 limits assumed): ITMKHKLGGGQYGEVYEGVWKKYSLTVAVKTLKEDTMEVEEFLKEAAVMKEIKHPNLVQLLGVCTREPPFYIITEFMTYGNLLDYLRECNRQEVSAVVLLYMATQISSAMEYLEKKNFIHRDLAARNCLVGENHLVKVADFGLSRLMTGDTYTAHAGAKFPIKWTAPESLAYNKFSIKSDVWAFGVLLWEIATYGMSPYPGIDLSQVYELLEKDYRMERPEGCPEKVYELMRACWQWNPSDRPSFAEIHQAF

[1] = effect of the variant peptide relative to its reference peptide in the pTyr-Var library screen
[2] = variant peptide versus its reference peptide in the pTyr-Var library screen
[3] = value of the variant peptide against its reference peptide in the pTyr-Var library screen with Fer
[4] = sheet "Abl", effect of variant peptide relative to its reference peptide in pTyr-Var library screen (enrichment)
[5] = fig5-data2, sheet "Abl", Screen for the variant/reference peptide pair, pTyr-Var library
[6] = variant peptide relative to its reference peptide, pTyr-Var library screen enrichment

## LITTLYSGFLG [KCNQ1_Y267_I268S]
c-Src kinase domain; [1]
  Screen: 0.982

## LNECHYGALIG [BPGM_Y92_R90C]
c-Src kinase domain; [1]
  Screen: 2.509

## LNPFIYSLRNC [OR1A2_Y288_W293C]
c-Src kinase domain; [2]
  Screen: -0.4787
Fer kinase domain; [3]
  Screen: -1.075
EPHB1 kinase domain
  Screen: -1.104

## LNPLFYSLRNK [OR5R1_Y290_I289F]
c-Src kinase domain; [2]
  Screen: -4.245
EPHB1 kinase domain
  Screen: -2.165

## LNPLVYTLRNA [OR4C12_Y285_V283L]
c-Src kinase domain; [2]
  Screen: 0.901

## LTDLRYKVSGP [TTN_Y22641_L22646P]
c-Abl kinase domain; [4]
  Screen: -1.764

## LTMAPYSSVSV [FAM81A_Y24_L29V]
Fer kinase domain; [3]
  Screen: 0.5529

## MKGEFYRFLAE [YWHAG_Y131_D129E_YF]
c-Abl kinase domain; [4]
  Screen: 2.42

## MSRDVYSTDCF [NTRK2_Y702_Y706C_YF]
c-Src kinase domain; [2]
  Screen: -0.1963

## MSSLFYANALF [HOXB7_Y6_T9A_YF]
c-Abl kinase domain; [5]
  Screen: 1.131
Fer kinase domain; [3]
  Screen: -0.9977

## NDQANYLLNTD [ADA_Y290_S291L]
c-Abl kinase domain; [5]
  Screen: -1.65

## NSFKFYMSDDI [ATRX_Y204_C200S_YF]
c-Abl kinase domain; [5]
  Screen: 1.883

## PFTDPYFDFEI [ZC3H18_Y371_A368T_YF]
c-Src kinase domain; [2]
  Screen: 0.4384

## PLDGEYFSLQI [TP53_Y327_T329S]
c-Src kinase domain; [2]
  Screen: 0.4244

## PLDGEYFTHQI [TP53_Y327_L330H]
c-Src kinase domain; [2]
  Screen: -1.246

## PLDGEYFTLQV [TP53_Y327_I332V]
c-Src kinase domain; [2]
  Screen: -0.8668
EPHB1 kinase domain
  Screen (variant relative to reference peptide, measured in the pTyr-Var library screen): -0.1216

## PMQMPYDSRWE [PDGFRA_Y582_L580M]
c-Abl kinase domain; [5]
  Screen: 0.7733

## PNKAVYTKMMT [G6PD_Y401_E398K]
c-Src kinase domain; [1]
  Screen: -2.964
Fer kinase domain; [3]
  Screen: -3.207

## PNRILYGDFWQ [MYH7_Y715_R719W]
c-Src kinase domain; [2]
  Screen: -0.3786

## PQGVSYIFTID [DCX_Y103_R102S_YF]
c-Abl kinase domain; [5]
  Screen: -1.987

## PRNLIYFGEHP [TRPV6_Y201_C197R]
c-Src kinase domain; [2]
  Screen: -3.508

## PVQAAYQKLVA [HBB_Y131_V134L]
c-Abl kinase domain; [5]
  Screen: -1.01

## QKPLGYFRVNL [GALE_Y104_D103G_YF]
c-Abl kinase domain; [5]
  Screen: -1.351

## QMVRMYASSFM [AVPR2_Y124_G122R_YF]
c-Src kinase domain; [1]
  Screen: -2.32

## REGAKYVSHDA [ASS1_Y113_G117D]
c-Abl kinase domain; [5]
  Screen: 1.12

## REGKIYEFNQV [ZNF665_Y162_H157R_YF]
c-Src kinase domain; effect of the variant peptide against its reference peptide, seen in the pTyr-Var library screen
  Screen: -1.072
c-Abl kinase domain; [4]
  Screen: -1.605
Fer kinase domain; [6]
  Screen: -0.7739

## RNLLIYTEFGK [HGD_Y166_G161R]
c-Src kinase domain; [1]
  Screen: -0.2684
EPHB1 kinase domain
  Screen: 0.6934

## RREWFYEVIIA [BACE1_Y260_V265A_YF]
Fer kinase domain; [3]
  Screen: -1.406

## RRIHSYRGRLW [VHL_Y112_H115R]
c-Src kinase domain; [2]
  Screen: -2.396
EPHB1 kinase domain
  Screen (variant relative to reference peptide, measured in the pTyr-Var library screen): -0.8094

## RRNEIYEIKVD [LGR5_Y387_H383R]
c-Src kinase domain; [1]
  Screen: -0.9028

## SDPIIYTLENV [ADGRE1_Y534_I539V]
c-Src kinase domain; [1]
  Screen: -0.05563
Fer kinase domain; [3]
  Screen: -0.559

## SHSMRYFSTAV [HLA-C_Y31_D33S]
c-Abl kinase domain; [5]
  Screen: 0.4242

## SLMNQYVNKEF [RAB7A_Y28_K32E]
c-Abl kinase domain; [5]
  Screen: 1.901

## SNKELYEKFMI [TTN_Y32175_T32171N_YF]
c-Src kinase domain; [2]
  Screen: 0.8077
Fer kinase domain; [6]
  Screen: 0.5633

## SNKLTYGTVVF [ACOX1_Y275_M278V]
c-Src kinase domain; [1]
  Screen: 0.3111

## SSQTIYQRVEG [TFR2_Y23_V22I]
c-Src kinase domain; [2]
  Screen: 1.445
EPHB1 kinase domain
  Screen (variant relative to reference peptide, measured in the pTyr-Var library screen): 1.306

## TDHLQYFDSNK [ARAP1_Y359_R358Q]
c-Abl kinase domain; [5]
  Screen: 1.336

## TESALYGCTVV [KIAA1804_Y724_L729V]
c-Src kinase domain; [1]
  Screen: -0.09726
Fer kinase domain; [3]
  Screen: 0.07488

## TFGNLYGSRKQ [YIPF7_Y59_A54T_YF]
c-Src kinase domain; [2]
  Screen: 0.7296
c-Abl kinase domain; [4]
  Screen: -3.299

## TLLPDYEDEEE [ZNF830_Y159_S154T]
c-Abl kinase domain; [4]
  Screen: 2.994

## TTKGAYSLSVR [YES1_Y194_I198V]
c-Abl kinase domain; [4]
  Screen: 2.19

## TVLWLYTGTRP [UGT1A1_Y337_R336L]
c-Abl kinase domain; [4]
  Screen: 0.619

## TVLWQYTGTRP [UGT1A1_Y337_R336Q]
c-Abl kinase domain; [4]
  Screen: 0.7115

## VASMFYTLVIP [OR8K3_Y277_I275M]
Fer kinase domain; [3]
  Screen: 0.3514

## VCHELYNAIRD [PBRM1_Y54_T56A]
c-Abl kinase domain; [5]
  Screen: -0.5103

## VFFDLYGGEKF [PTPN11_Y66_D61V_YF]
c-Src kinase domain; [2]
  Screen: -0.4607

## VHKKGYNKLNQ [ZNF676_Y98_E96K]
c-Abl kinase domain; [4]
  Screen: 1.586

## VLALWYFFLTN [ZDHHC23_Y127_H132N_YF]
c-Abl kinase domain; [4]
  Screen: -3.327

## VMAALYGRLFE [BTD_Y536_T532M_YF]
c-Src kinase domain; [1]
  Screen: 0.294
c-Abl kinase domain; [5]
  Screen: -0.5848

## VMLENYSNLLS [ZFP69_Y109_V113L]
EPHB1 kinase domain
  Screen (variant relative to reference peptide, measured in the pTyr-Var library screen): 0.4122

## WCSNDYLGMSQ [ALAS2_Y199_R204Q]
EPHB1 kinase domain
  Screen: 0.6712
